Measured values reported in patent US20110236504A1, “VERSATILE DISINFECTANT” (priority 2008, published 2011).
“And” between values parts separate entries of the source, which are not always exact repeats. Identical values can stand only once. Like-named read-outs stand apart in the source and are kept apart here.

Columns and labels:
[1] = tested on: viable bacteria in sputum; experiment: Sterilization effect on specimen: sputum; conditions: Sputum 2 × 10^9/g
[2] = tested on: intestinal bacteria in feces; experiment: Sterilization effect on specimen: feces; conditions: for The number of viable bacteria in specimen: Feces 1.5 × 10^11/g
[3] = tested on: pus mainly including antibiotic resistant MRSA; conditions: Pus (MRSA) 4 × 10^9/g
[4] = tested on: pus mainly including antibiotic resistant Pseudomonas aeruginosa (MDRP); conditions: Pus (MDRP) 5 × 10^9/g
[5] = tested on: viable bacteria on skin surface; experiment: Application on hand skin, swab method; format: in vivo; conditions: for The number of viable bacteria on skin surface, relative value: before application = 100
Experimental: The disinfectant prepared in Preparation Example 3 was applied. Immediately after that, an area of 10 cm^2 was wiped with sterile gauze that was immersed into sterile physiological saline. Then, the number of bacteria was counted (Swab method). Next, different areas each having an area of 10 cm^2 were wiped in the applied area after 15 minutes, after 30 minutes, and after 60 minutes, and the viability of bacteria on the skin was determined. As controls, tap water and 70% ethanol were used. The number of bacteria before the application of disinfectants is regarded as 100 and relative values are shown.

[6] = tested on: spores of Bacillus species; experiment: Spore decay time and decay rate in dried soil, aerobic culture; format: cell-based; conditions: for Spore decay rate, Spores of Bacillus species: 1 g dried soil in 10 ml, aerobic culture
Experimental: (§1) Sands in a sandbox in a park and riverside soil were collected and mixed. The mixture was dried with heated air at 80 to 90° C. for 6 hours. Then, 1 g of the dried mixture was added into water and immediately filtered with a filter. A part of the filtrate was applied onto a glass slide, and spores were stained in a common procedure. The number of stained spores was counted and the number of spores contained in 1 g of soil was determined. Simultaneously, the spores were aerobically (Bacillus species proliferated) and anaerobically (Clostridium species proliferated) cultured, and each ratio was determined.
(§2) Then, into 10 ml of the sample disinfectant, 1 g of the dried soil was added. Some of the mixture was collected with time, and cultured aerobically and anaerobically. The number of growing colonies was counted to determine the decay rate of the spores.

[7] = tested on: spores of Clostridium species; experiment: Spore decay time and decay rate in dried soil, anaerobic culture; format: cell-based; conditions: for Spore decay rate, Spores of Clostridium species: 1 g dried soil in 10 ml, anaerobic culture
Experimental: as §1, §2

E. coli O-157 [8] = experiment: Metal ion or food preservative added to growth medium, viable count; format: cell-based; conditions: metal ion in growth medium
Experimental: (§3) To a standard medium for counting viable bacteria described below, each metal ion with varied concentration was added. […] Then, the number of viable bacteria was counted with time in a common procedure.
(§4) Sample bacteria: S. aureus 209P as a representative of Gram-positive bacteria • E. coli 0-157 as a representative of Gram-negative bacteria
(§5) Standard medium for counting viable bacteria: yeast extract 2.5 g, peptone 5 g, glucose 1 g, agar 15 g, pH 7.2

S. aureus 209P [9] = experiment: as above; format: cell-based; conditions: metal ion in growth medium
Experimental: as §3, §4, §5

S. aureus 209P [10] = experiment: 100% death time on contact with solution; format: cell-based
Description: Examples of the effect are shown below.

E. coli O-157 [11] = experiment: 100% death time on contact with solution
[12] = Investigation of aqueous L-ascorbic acid solution; format: cell-based
Description: L-ascorbic acid (vitamin C) is essential for a living body and well fitted to body tissues. Addition of a small amount of L-ascorbic acid increases affinity to cellular tissues.

[13] = tested on: viable bacteria in saliva; experiment: Effect of gargle, viable bacteria in saliva; format: in vivo, persons; conditions: for number of viable bacteria in saliva, relative value: before gargle = 100, one value per person
Experimental: Next, the efficacy of the disinfectant was examined when it is used for a gargle. The number of viable bacteria was counted in 1 ml of saliva that was collected from each of three persons before a gargle. Then, each person gargled three times each for 20 seconds, that is, gargled for total of 1 minute, with the disinfectant of the present invention that was prepared in Preparation Example 6. Each saliva was collected immediately after the gargle and at 15 minutes, 30 minutes, and 60 minutes after the gargle. The number of viable bacteria was counted per 1 ml of the saliva, and the effect of gargle was determined. Here, the number of viable bacteria before gargle is regarded as 100, and relative values are shown.
As a control, each of two persons was gargled with tap water or 1000 ppm povidone-iodine in a similar way.

[14] = Cu^2+ 50 ppm + L-ascorbic acid 100 ppm
[15] = Cu^2+ 50 ppm + L-ascorbic acid 100 ppm + potassium sorbate 50 ppm
[16] = Cu^2+ 50 ppm + potassium sorbate 50 ppm
[17] = Cu^2+ 50 ppm + sodium lauryl sulfate 50 ppm
[18] = Cu^2+ 50 ppm + sodium lauryl sulfate 50 ppm + L-ascorbic acid 100 ppm
[19] = Cu^2+ 50 ppm + sodium lauryl sulfate 50 ppm + L-ascorbic acid 100 ppm + potassium sorbate 50 ppm

## CCO [70% Ethanol, ethanol]
[1]; 5 min after addition
  The number of viable bacteria in specimen: 1e+08 g⁻¹
[1]; 15 min after addition
  The number of viable bacteria in specimen: 2e+07 g⁻¹
[1]; 30 min after addition
  The number of viable bacteria in specimen: 6e+06 g⁻¹
[1]; 60 min after addition
  The number of viable bacteria in specimen: 5e+06 g⁻¹
[1]; 60 min after addition, listed as 70% ethanol
  The number of viable bacteria in specimen: 5e+06 g⁻¹
[2]; 5 min after addition
  The number of viable bacteria in specimen: 5e+06 g⁻¹
[2]; 15 min after addition
  The number of viable bacteria in specimen: 3000 g⁻¹
[2]; 30 min after addition
  The number of viable bacteria in specimen: 4e+10 g⁻¹
[2]; 60 min after addition
  The number of viable bacteria in specimen: 4e+16 g⁻¹
[2]; feces
  effect on bacteria in feces: only slightly decreased
[3]; 5 min after addition
  The number of viable bacteria in specimen: 5e+07 g⁻¹
[3]; 15 min after addition
  The number of viable bacteria in specimen: 200000 g⁻¹
[3]; 30 min after addition
  The number of viable bacteria in specimen: 80000 g⁻¹
[3]; 60 min after addition
  The number of viable bacteria in specimen: 50000 g⁻¹
[4]; 5 min after addition
  The number of viable bacteria in specimen: 7e+07 g⁻¹
[4]; 15 min after addition
  The number of viable bacteria in specimen: 500000 g⁻¹
[4]; 30 min after addition
  The number of viable bacteria in specimen: 10000 g⁻¹
[4]; 60 min after addition
  The number of viable bacteria in specimen: 10000 g⁻¹
[5]; after 60 minutes
  number of bacteria on skin relative to before application: 45%
[5]; after 15 min
  The number of viable bacteria on skin surface, relative value: 12
[5]; after 30 min
  The number of viable bacteria on skin surface, relative value: 20
[5]; after 60 min
  The number of viable bacteria on skin surface, relative value: 45
[5]; immediately after
  The number of viable bacteria on skin surface, relative value: 0
[5]; immediately after, listed as 70% ethanol
  The number of viable bacteria on skin surface, relative value: no bacteria was observed
[6]
  effect on the spores: no effect
[6]; 1 min contact
  Spore decay rate, Spores of Bacillus species: 0%
[6]; 5 min contact
  Spore decay rate, Spores of Bacillus species: 0%
[6]; 10 min contact
  Spore decay rate, Spores of Bacillus species: 0%
[6]; 30 min contact
  Spore decay rate, Spores of Bacillus species: 0%
[6]; 60 min contact
  Spore decay rate, Spores of Bacillus species: 0%
[6]; 120 min contact
  Spore decay rate, Spores of Bacillus species: 0%
[7]
  effect on the spores: no effect
[7]; 1 min contact
  Spore decay rate, Spores of Clostridium species: 0%
[7]; 5 min contact
  Spore decay rate, Spores of Clostridium species: 0%
[7]; 10 min contact
  Spore decay rate, Spores of Clostridium species: 0%
[7]; 30 min contact
  Spore decay rate, Spores of Clostridium species: 0%
[7]; 60 min contact
  Spore decay rate, Spores of Clostridium species: 0%
[7]; 120 min contact
  Spore decay rate, Spores of Clostridium species: 0%

## O.O.O.O.O.O=S(=O)([O-])[O-].[Cu+2] [Cu^2+, CuSO4•5H2O]
E. coli O-157 [8]
  (a) Antiproliferative activity, concentration: 5~30 ppm
  (b) Bacteriostatic activity, concentration: 25~120 ppm
  (c) Bactericidal activity, concentration: 100 ppm>
  Acceleration of growth, concentration: 5 ppm<
S. aureus 209P [9]
  (a) Antiproliferative activity, concentration: 10~50 ppm
  (b) Bacteriostatic activity, concentration: 40~150 ppm
  Acceleration of growth, concentration: 5 ppm<
S. aureus 209P [10]; [14]
  100% death time: 60 min
S. aureus 209P [10]; [15]
  100% death time: 50 min
S. aureus 209P [10]; [16]
  100% death time: 75 min
S. aureus 209P [10]; [17]
  100% death time: 1.5 min
S. aureus 209P [10]; [18]
  100% death time: 1 min
S. aureus 209P [10]; [19]
  100% death time: 0.75 min
S. aureus 209P [10]; Cu^2+ ion 50 ppm alone
  100% death time: 90 min
E. coli O-157 [11]; [14]
  100% death time: 60 min
E. coli O-157 [11]; [15]
  100% death time: 45 min
E. coli O-157 [11]; [16]
  100% death time: 70 min
E. coli O-157 [11]; [17]
  100% death time: 1 min
E. coli O-157 [11]; [18]
  100% death time: 1 min
E. coli O-157 [11]; [19]
  100% death time: 0.5 min
E. coli O-157 [11]; Cu^2+ ion 50 ppm alone
  100% death time: 90 min

## O=C1O[C@H]([C@@H](O)CO)C(O)=C1O [L-ascorbic acid]
[12]
  antimicrobial activity of aqueous solution itself: almost no antimicrobial activity

## povidone-iodine
[13]; after 60 minutes
  number of bacteria in saliva relative to before gargle: 30 to 40%
[13]; after 15 min
  number of viable bacteria in saliva, relative value: 5 and 8
[13]; after 30 min
  number of viable bacteria in saliva, relative value: 18 and 20
[13]; after 60 min
  number of viable bacteria in saliva, relative value: 30 and 40
[13]; immediately after gargle
  number of viable bacteria in saliva, relative value: 2
[13]; immediately after the gargle
  number of bacteria in saliva relative to before gargle: 2%
